Laboratory results reported in patent EP3511005A1, “COMPOUNDS FOR USE IN TREATING HUTCHINSON-GILFORD PROGERIA SYNDROME” (Technische Universität München, priority 2018, dated 2019).
Where “and” joins values, the source holds several entries; their conditions need not be identical. Equal values may be shown once.

Tests used:
[1] = test system: mouse fibroblasts from a progerin mouse model; test: Autophagy measurement in mouse fibroblasts (monodansylcadaverine staining); conditions: 3 µM
Protocol: First, control and HGPS fibroblasts were harvested in the above mentioned conditions and, following trypsinization, the number of cells was counted with a CASY® Cell Counter (Roche). Afterwards, fibroblasts from each condition were seeded in triplicate in a 96 well plate with 32.000 cells/well in 100 µl of culture media with the appropriate drug concentration, and the plate was incubated at 37 °C for 8 h. After centrifuging the 96 well plate at 1200 rpm for 5 min, the culture media was aspirated from each well and 100 µl of staining solution was added. The staining solution was prepared by diluting Cell-Based Monodansylcadaverine 1:1000 in Cell Based Assay Buffer. The assay buffer was prepared by dissolving a Cell-Based Assay Buffer Tablet in 100 ml of distilled water. […] Lastly, after removing the supernatant, 100 µl of Cell-Based Assay Buffer was added to each well and the autophagic vacuole staining intensity was immediately detected in a FLUOstar Omega Microplate Reader (Omega BMG Labtech) using an excitation wavelength of 355 nm and an emission wavelength of 520 nm.

[2] = test system: mouse fibroblasts from a progerin mouse model; test: Western blot analysis of progerin levels in mouse fibroblasts from progerin mouse model; assay type: cell-based; conditions: mouse progerin fibroblasts (LMNA G609G/G609G), 3 µM
Protocol: (§1) A similar quantitative Western Blot analysis was carried out in wild-type mouse fibroblasts compared to fibroblasts obtained from the progerin mouse model (see Figure 17).
Subsequently, the cell suspension was centrifuged for 5 min at 1200 rpm, the supernatant was aspirated, and the cells were washed with 4.5 ml PBS (Sigma). These steps were performed thrice in order to assure that all culture media is removed. Then, the cells were transferred to Eppendorf tubes with 1 ml PBS (Sigma) and the tubes were centrifuged for 5 min at 1200 rpm. After fully aspirating PBS, the cell pellets were obtained. Following the generation of cell pellets, the next action was the preparation of the gel electrophoresis loading samples. The first step was the addition of 100 µl per 10^7 cells of Laemmli Buffer-inhibitor mix to each Eppendorf tube to lyse the fibroblasts and denature the proteins of the lysate. […]
(§2) The total protein concentration of each gel electrophoresis loading sample was determined by using a series of dilutions of known concentrations of bovine serum albumin (BSA) to obtain a standard curve. […] The total protein concentration of each gel electrophoresis loading sample was calculated based on this standard curve. […]

HGPS fibroblasts [3] = test: Autophagy measurement in HGPS fibroblasts; assay type: cell-based, human; conditions: 0.25-1 µM, 4 or 9 days
Protocol: This assay uses monodansylcadaverine (MDC), a fluorescent compound that is incorporated into multilamellar bodies by both an ion trapping mechanism and the interaction with membrane lipids, as a probe for the detection of autophagic vacuoles in cells.
The staining solution was prepared by diluting Cell-Based Monodansylcadaverine 1:1000 in Cell Based Assay Buffer. The assay buffer was prepared by dissolving a Cell-Based Assay Buffer Tablet in 100 ml of distilled water. The plate was then incubated at 37 °C for 10 min and centrifuged for 5 min at 1200 rpm. Next, the supernatant was removed, 100 µl of Cell-Based Assay Buffer was added to each well and the plate was again centrifuged in the same conditions. […] Considering that the autophagy level in mock-treated control fibroblasts is 100%, the level of autophagy relative to mock-treated control fibroblasts for each condition was determined (see Figure 5).
Cell-Based Tamoxifen (100 mM), a known inducer of autophagy, was used as a positive control. This compound was initially added to a control culture diluted 1:50.000 into the culture media. Cell Based Assay Buffer was used as a negative blank control.

HGPS fibroblasts [4] = test: Intracellular ROS measurement in HGPS fibroblasts; assay type: cell-based, human; conditions: 0.25-1 µM, 4 or 9 days
From the text: This assay uses 2',7'-dichlorofluorescein diacetate (DCFDA), a cell permeant reagent that after entering the cell is deacetylated by cellular esterases to a non-fluorescent compound that is later oxidized by ROS into 2',7'-dichlorofluorescein (DCF). DCF is highly fluorescent and can be detected by fluorescence spectroscopy.
First, control and HGPS fibroblasts were harvested in the above mentioned conditions and, following trypsinization, the number of cells was counted with a CASY® Cell Counter (Roche). The fibroblasts from each condition were seeded in triplicate in a 96 well plate with 32.000 cells/well in 100 µl of culture media with the appropriate drug concentration, and the plate was incubated at 37 °C for 8 h. After the incubation, the culture media was aspirated, 100 µl of 1 x Buffer were added to each well, and the plate was centrifuged at 1200 rpm for 5 min. […] Following the addition of 1x Buffer, fluorescence was measured immediately in a FLUOstar Omega Microplate Reader (Omega BMG Labtech) using an excitation wavelength of 485 nm and an emission wavelength of 535 nm. Considering that the ROS level in mock-treated control fibroblasts is 100%, the ROS levels relative to mock-treated control fibroblasts were calculated for each condition. […]

HGPS fibroblasts [5] = test: Intracellular ATP measurement in HGPS fibroblasts; assay type: cell-based, human; conditions: 0.25-1 µM, 4 or 9 days
Protocol: This assay relies in the properties of a proprietary thermostable luciferase which generates a stable luminescent signal that is proportional to the amount of ATP in the cells by catalyzing the mono-oxygenation of luciferin in the presence of Mg^2+, ATP and molecular oxygen.
This reagent is obtained by transferring 10 ml of CellTiter-Glo® Buffer into an amber bottle containing CellTiter-Glo® Substrate and then mixing it gently by vortexing. The plate was then mixed for 2 min in an orbital shaker to induce cell lysis and following that, it was incubated at room temperature for 10 min to stabilize the luminescent signal. Finally, luminescence was recorded in a FLUOstar Omega Microplate Reader (Omega BMG Labtech). Considering that the ATP level in mock-treated control fibroblasts is 100%, the ATP levels relative to mock-treated control fibroblasts were calculated for each condition.
Culture media without cells was used as a blank negative control to assure there is no interference with the luciferase reaction.

HGPS fibroblasts [6] = test: Western blot analysis of progerin and lamin A/C levels in HGPS fibroblasts; assay type: cell-based, human; conditions: HGPS cells
Protocol: Primary dermal fibroblasts from subjects with HGPS were obtained from the Progeria Research Foundation. Two different fibroblasts derived from HGPS patients carrying the LMNA mutation G608G were used: HGADFN003 (person) and HGADFN127 (person). Control dermal fibroblasts were obtained from the Coriell Institute for Medical Research (Camden, NJ). The following cell lines were used: GMO1651C and GMO3349C. All cells were maintained at -80 °C in 90% fetal bovine serum (FBS) and 10% dimethyl sulfoxide (DMSO). The Institutional Review Board of the Technische Universität München (TUM) approved the use of human cells established from skin biopsies from patients with HGPS and unaffected individuals in this study.
Control and HGPS fibroblasts were cultured at 37 °C and 5% CO2 in Dulbecco's Modified Eagle Media (DMEM) (Gibco by life technologies) containing 15% FBS (Gibco by life technologies), 1% L-glutamine (Gibco by life technologies), 1% penicillin/streptomycin (Gibco by life technologies), and 2 ml of gentamycin (Gibco by life technologies). Mock-treated and baricitinib-treated fibroblasts were cultured in parallel. […] Three times a week the cells were re-fed with new culture media.
as §1
Subsequently, the cell suspension was centrifuged for 5 min at 1200 rpm, the supernatant was aspirated, and the cells were washed with 4.5 ml PBS (Sigma). These steps were performed thrice in order to assure that all culture media is removed. Then, the cells were transferred to Eppendorf tubes with 1 ml PBS (Sigma) and the tubes were centrifuged for 5 min at 1200 rpm. […]
as §2

HGPS fibroblasts [7] = test: 20S proteasome activity measurement in HGPS fibroblasts; assay type: cell-based, human; conditions: 0.25-1 µM, 4 or 9 days
Protocol: This assay uses a specific 20S substrate (SUC-LLVY-AMC) which, upon cleavage by the active enzyme, generates a fluorescent product that can be detected.
Next, the plate was again centrifuged in the same conditions, the supernatant was aspirated, and 100 µl of 20S Proteasome Lysis Buffer was added to each well. Then, the plate was incubated with gentle shaking for 30 min at room temperature to allow cell lysis and it was centrifuged at 1300 rpm for 7 min. Following centrifugation, 90 µl of the supernatant from each well was transferred to a new empty well together with 10 µl of substrate solution. The substrate solution was prepared by adding 25 µl of 20S Proteasome Substrate (SUC-LLVY-AMC) to 1 ml of 20S Proteasome Assay Buffer. […] Considering that the proteasomal activity in mock-treated control fibroblasts is 100%, the proteasomal activity relative to mock-treated control fibroblasts was calculated for each condition.
A Jurkat cell lysate supernatant which contains a high level of 20S activity was used as positive control (20S Proteasome Positive Control) and 20S Proteasome Assay Buffer was used as negative blank control.

[8] = test system: control and progerin mouse cells; test: Cell growth (proliferation) of mouse fibroblasts; assay type: cell-based; conditions: 3 µM
Protocol: First, control and HGPS fibroblasts were cultured at 37 °C and 5% CO2 in culture media without drug. […] Then, each type of fibroblasts was seeded in triplicate with 150.000 cells/dish at the four different conditions. After 4 days and 9 days, the number of cells harvested in each condition was counted, also using a CASY® Cell Counter (Roche). The cumulative population doubling was determined using equation 5. Cumulative Population Doubling = 3,32 × log((cells harvested)/(cells seeded)) [formula]

SMILES: CCS(=O)(=O)N1CC(CC#N)(n2cc(-c3ncnc4[nH]ccc34)cn2)C1 [baricitinib]
- levels of autophagy ([1]; both control and progerin mouse fibroblasts): increases
- levels of autophagy increased ([1]; progerin mouse fibroblast relative to mock-treated control cells): 39.9%
- levels of progerin decrease ([2]; day 4): 18%
- levels of progerin decrease ([2]; day 9): 35% and 35.6%
- autophagy activity (HGPS fibroblasts [3]): increase
- ROS levels (HGPS fibroblasts [4]): decrease
- ATP levels (HGPS fibroblasts [5]): increase
- reduction of levels of progerin (HGPS fibroblasts [6]; 4 days treatment with 1 µM, anti-progerin and anti-lamin A/C antibodies): 15%
- progerin levels decreased (HGPS fibroblasts [6]; 9 days treatment with 1 µM): 33%
- lamin A and lamin C levels (HGPS fibroblasts [6]; long-term treatment): remained constant
- proteasome activity (HGPS fibroblasts [7]): increase
- cell growth [8]: ameliorate cell growth
